Experimental data taken from patent US10526316B2, “Quinoxaline and pyridopyrazine derivatives as PI3Kβ inhibitors” (Janssen Pharmaceutica NV, priority 2015, dated 2020).
Where two headings read alike, the source gives them in different places.

Assays:
kinase enzymes [1] = molecular target: T1, kinase enzymes (Homo sapiens, UniProt P48736); assay: Enzyme binding assay (KINOMEscan, DiscoveRx), further kinases of Table A; conditions: PIK3Cγ_h
T1 construct: purchased DiscoveRx Corporation, San Diego (contract service, KINOMEscan)
T1 sequence (P48736 whole entry): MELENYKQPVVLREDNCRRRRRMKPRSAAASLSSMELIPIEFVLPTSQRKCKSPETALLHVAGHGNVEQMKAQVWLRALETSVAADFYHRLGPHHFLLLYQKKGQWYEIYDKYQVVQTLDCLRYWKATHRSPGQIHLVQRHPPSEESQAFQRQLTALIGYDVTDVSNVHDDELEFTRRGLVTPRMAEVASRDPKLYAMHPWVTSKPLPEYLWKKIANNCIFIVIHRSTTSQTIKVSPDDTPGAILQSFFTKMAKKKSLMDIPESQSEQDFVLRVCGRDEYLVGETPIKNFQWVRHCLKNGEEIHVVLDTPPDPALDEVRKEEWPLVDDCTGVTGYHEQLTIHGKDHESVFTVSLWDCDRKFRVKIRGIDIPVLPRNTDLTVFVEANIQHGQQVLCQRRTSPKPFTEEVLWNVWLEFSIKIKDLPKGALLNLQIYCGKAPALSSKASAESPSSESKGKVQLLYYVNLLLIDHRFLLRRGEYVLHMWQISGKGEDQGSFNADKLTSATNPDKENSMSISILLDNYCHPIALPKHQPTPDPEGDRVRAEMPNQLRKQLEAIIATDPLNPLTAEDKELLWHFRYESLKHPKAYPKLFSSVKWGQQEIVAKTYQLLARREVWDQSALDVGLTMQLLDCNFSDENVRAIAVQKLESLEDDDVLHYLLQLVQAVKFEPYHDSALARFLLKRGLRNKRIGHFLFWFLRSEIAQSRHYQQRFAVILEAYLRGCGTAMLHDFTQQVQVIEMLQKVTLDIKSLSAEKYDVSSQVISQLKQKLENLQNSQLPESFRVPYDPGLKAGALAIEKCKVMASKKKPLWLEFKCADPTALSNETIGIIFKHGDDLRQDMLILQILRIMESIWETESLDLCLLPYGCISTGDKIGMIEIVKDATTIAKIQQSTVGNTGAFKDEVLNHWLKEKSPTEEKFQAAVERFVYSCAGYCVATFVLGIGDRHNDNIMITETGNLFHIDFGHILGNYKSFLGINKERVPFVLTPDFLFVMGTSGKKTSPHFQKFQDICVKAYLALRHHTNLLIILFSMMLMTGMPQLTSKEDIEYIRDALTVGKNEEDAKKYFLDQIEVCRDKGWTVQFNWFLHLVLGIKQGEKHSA
Summary of the method: (§1)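 Uses KINOMEscan technology to determine binding affinity toward the kinase enzymes.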

kinase enzymes [2] = molecular target: T2, kinase enzymes (Homo sapiens, UniProt P42336); assay: as above; conditions: PIK3Cα_h
T2 construct: purchased DiscoveRx Corporation, San Diego (contract service, KINOMEscan)
T2 sequence (P42336 whole entry): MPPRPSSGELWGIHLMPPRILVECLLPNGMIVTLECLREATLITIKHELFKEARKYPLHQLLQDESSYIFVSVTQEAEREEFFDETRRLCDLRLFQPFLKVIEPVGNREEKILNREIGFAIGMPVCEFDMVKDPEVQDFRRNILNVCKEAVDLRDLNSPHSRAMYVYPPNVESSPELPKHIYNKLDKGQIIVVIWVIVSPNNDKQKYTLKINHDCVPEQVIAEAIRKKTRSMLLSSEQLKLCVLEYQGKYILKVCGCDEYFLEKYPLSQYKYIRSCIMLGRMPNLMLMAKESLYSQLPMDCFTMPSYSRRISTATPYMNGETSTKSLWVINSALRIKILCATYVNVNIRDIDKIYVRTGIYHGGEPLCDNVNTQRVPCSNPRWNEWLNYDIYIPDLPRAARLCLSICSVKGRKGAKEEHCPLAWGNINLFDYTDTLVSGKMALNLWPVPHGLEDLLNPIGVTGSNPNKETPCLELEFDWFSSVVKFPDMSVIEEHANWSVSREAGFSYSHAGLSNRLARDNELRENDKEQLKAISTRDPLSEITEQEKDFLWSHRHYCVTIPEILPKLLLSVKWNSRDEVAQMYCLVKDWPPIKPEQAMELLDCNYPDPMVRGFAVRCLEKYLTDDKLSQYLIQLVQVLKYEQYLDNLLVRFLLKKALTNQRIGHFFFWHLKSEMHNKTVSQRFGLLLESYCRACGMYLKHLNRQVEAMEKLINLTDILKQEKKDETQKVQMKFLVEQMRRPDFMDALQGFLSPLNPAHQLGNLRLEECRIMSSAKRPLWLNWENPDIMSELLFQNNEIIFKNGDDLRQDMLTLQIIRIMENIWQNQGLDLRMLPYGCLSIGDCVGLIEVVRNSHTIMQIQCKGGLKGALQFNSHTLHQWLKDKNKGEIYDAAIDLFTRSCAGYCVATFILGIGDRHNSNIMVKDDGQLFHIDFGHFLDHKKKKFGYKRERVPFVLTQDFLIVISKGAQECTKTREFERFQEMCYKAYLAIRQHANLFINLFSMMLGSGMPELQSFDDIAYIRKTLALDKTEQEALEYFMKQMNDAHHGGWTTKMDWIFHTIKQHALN
Summary of the method: as §1

kinase enzymes [3] = molecular target: T3, kinase enzymes (Homo sapiens, UniProt P42345); assay: as above; conditions: MTOR_h
T3 construct: purchased DiscoveRx Corporation, San Diego (contract service, KINOMEscan)
Summary of the method: as §1

[4] = tested on: Akt phosphorylated at Thr308 in PC-3 cells; assay: Cellular assay: phosphorylation of Akt at Thr308 in PC-3 cells (MSD ELISA); assay type: cell-based; conditions: PC-3 cells, 60 min compound incubation, MSD ELISA, read-out: IC50 pAkt_Thr308
Summary of the method: (§2)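 Phospho-Akt in whole-cell lysates is quantified by electrochemiluminescent immunoassay using phospho-site capture and total-Akt detection antibodies.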

[5] = tested on: Akt phosphorylated at Ser473 in PC-3 cells; assay: Cellular assay: phosphorylation of Akt at Ser473 in PC-3 cells (MSD ELISA); assay type: cell-based; conditions: PC-3 cells, 60 min compound incubation, MSD ELISA, read-out: IC50 pAkt_S473
Summary of the method: as §2

PI3Kδ = molecular target: T4, PI3Kδ (Homo sapiens, UniProt O00329); assay: Enzyme binding assay (KINOMEscan, DiscoveRx); conditions: PIK3Cδ_h
T4 construct: purchased DiscoveRx Corporation, San Diego (contract service, KINOMEscan)
T4 sequence (O00329 1-1044): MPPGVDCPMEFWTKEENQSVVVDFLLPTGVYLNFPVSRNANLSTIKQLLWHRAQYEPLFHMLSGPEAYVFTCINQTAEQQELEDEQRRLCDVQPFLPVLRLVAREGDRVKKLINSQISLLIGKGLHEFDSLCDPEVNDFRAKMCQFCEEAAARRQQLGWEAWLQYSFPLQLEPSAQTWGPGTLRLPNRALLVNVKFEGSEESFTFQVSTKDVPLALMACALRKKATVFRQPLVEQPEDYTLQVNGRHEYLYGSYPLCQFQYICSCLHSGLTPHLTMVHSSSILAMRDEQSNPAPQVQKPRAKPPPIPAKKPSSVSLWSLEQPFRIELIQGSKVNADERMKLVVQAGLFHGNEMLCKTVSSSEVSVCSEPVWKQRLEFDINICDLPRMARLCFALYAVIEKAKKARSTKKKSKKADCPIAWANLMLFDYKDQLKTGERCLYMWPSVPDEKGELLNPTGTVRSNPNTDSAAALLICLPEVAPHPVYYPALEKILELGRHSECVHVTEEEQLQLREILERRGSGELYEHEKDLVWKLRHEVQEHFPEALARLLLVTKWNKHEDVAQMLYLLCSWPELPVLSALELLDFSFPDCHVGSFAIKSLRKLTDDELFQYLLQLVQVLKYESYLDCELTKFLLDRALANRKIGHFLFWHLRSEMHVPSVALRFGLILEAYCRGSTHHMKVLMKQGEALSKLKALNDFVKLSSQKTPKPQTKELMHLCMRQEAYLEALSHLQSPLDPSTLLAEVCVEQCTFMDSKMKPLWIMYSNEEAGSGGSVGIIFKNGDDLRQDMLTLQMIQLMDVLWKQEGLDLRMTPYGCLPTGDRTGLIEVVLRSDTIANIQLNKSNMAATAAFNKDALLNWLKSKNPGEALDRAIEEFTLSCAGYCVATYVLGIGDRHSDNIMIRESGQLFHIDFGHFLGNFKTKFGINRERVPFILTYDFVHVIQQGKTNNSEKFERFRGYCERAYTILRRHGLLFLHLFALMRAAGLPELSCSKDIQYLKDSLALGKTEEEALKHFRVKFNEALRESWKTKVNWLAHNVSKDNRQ
Summary of the method: as §1

PI3Kβ = molecular target: T5, PI3Kβ (Homo sapiens, UniProt P42338); assay: Enzyme binding assay (KINOMEscan, DiscoveRx); conditions: PIK3Cβ_h, read-out: Kd PIK3Cβ_h
T5 construct: purchased DiscoveRx Corporation, San Diego (contract service, KINOMEscan)
T5 sequence (P42338 whole entry): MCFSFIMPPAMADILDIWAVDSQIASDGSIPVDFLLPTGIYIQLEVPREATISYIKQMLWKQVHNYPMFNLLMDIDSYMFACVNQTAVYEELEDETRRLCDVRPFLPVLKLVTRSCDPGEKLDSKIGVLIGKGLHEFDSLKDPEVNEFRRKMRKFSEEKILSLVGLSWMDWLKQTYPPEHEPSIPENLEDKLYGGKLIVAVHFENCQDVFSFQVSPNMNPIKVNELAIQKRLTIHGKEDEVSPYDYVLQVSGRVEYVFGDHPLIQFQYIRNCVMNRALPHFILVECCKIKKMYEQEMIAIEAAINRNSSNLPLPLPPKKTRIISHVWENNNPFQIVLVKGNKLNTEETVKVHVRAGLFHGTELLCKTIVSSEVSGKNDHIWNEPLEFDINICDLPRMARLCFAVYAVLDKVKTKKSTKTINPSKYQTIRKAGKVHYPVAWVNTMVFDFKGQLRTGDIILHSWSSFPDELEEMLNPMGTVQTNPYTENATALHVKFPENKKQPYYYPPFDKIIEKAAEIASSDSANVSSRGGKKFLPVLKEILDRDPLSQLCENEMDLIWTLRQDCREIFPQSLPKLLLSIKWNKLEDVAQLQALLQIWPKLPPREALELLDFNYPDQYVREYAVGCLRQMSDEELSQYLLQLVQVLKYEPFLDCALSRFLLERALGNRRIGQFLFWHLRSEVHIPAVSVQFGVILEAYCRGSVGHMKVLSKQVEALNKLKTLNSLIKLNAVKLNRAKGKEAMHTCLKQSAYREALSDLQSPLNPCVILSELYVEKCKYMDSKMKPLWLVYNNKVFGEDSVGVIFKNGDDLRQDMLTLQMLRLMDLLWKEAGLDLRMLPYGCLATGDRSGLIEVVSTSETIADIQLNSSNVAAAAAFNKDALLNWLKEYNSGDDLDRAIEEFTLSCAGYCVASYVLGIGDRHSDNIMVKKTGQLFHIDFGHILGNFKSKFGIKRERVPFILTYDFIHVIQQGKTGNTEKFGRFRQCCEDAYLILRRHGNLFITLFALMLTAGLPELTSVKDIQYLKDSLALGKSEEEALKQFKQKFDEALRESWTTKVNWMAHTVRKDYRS
Summary of the method: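 Using the KINOMEscan format, the enzyme binding affinity of each compound was determined. Each value is the inhibitor binding constant, Kd (nM).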

| Structure (SMILES) | Kd (kinase enzymes [1]) | Kd (kinase enzymes [2]) | Kd (kinase enzymes [3]) | IC50 ([4]; Homo sapiens, PC-3, 1 h) | IC50 ([5]; Homo sapiens, PC-3, 1 h) | melting point | Kd (PI3Kδ) | Kd (PI3Kβ) | IC50 [4] | IC50 [5] |
| --- | --- | --- | --- | --- | --- | --- | --- | --- | --- | --- |
| CC(C)NCCNC(=O)c1cc(C(C)Nc2cccc(F)c2)c2nc(N3CCOCC3)cnc2c1 (centres unmarked) [Compound 226] | 5.62 µM | 2.57 µM | 28.8 µM | 0.013 µM | 0.02 µM | 158 °C | 0.275 µM | 0.001 µM | – | – |
| CN(C)C(=O)c1cc(C2CCCN2c2ccc(C#N)c(F)c2)c2nc(N3CCOCC3)cnc2c1 (centres unmarked) [Compound 54] | > 30.2 µM | 16.2 µM | 26.9 µM | > 0.513 µM | > 0.513 µM | 80 °C | 7.08 µM | 0.115 µM | – | – |
| CN(C)C(=O)c1cc(C2CCCN2c2cc(F)cc(CO)c2)c2nc(N3CCOCC3)cnc2c1 (centres unmarked) [Compound 45] | 2.09 µM | 0.17 µM | 31.6 µM | 0.072 µM | 0.166 µM | 80 °C | 0.126 µM | 0.003 µM | – | – |
| Cc1cc(C2CCCN2c2cc(F)cc(F)c2)c2nc(N3CCOCC3)cnc2c1 (single isomer, unassigned) [Compound 106] | 3.31 µM | 3.16 µM | > 30.2 µM | – | – | 80 °C | 1 µM | 0.006 µM | 0.062 µM | 0.105 µM |
| CN(C)C(=O)c1cc(NCc2cc(F)cc(F)c2)c2nc(N3CCOCC3)cnc2c1 [Compound 278] | 15.8 µM | 2.09 µM | 19.5 µM | 0.178 µM | 0.295 µM | 158 °C | 1.74 µM | 0.008 µM | – | – |
| CC(Nc1ccc(F)c(F)c1)c1cc(C(=O)N2CCC[C@H](O)C2)cc2ncc(N3CCOCC3)nc12 (some centres unmarked) [Compound 302] | 15.5 µM | 1.95 µM | > 30.2 µM | 0.076 µM | 0.076 µM | 80 °C | 0.38 µM | 0.005 µM | – | – |
| CC(Oc1cccc(F)c1)c1cc(C(=O)N(C)C)cc2ncc(N3CCOCC3)nc12 (centres unmarked) [Compound 68] | 15.1 µM | 3.16 µM | 22.4 µM | 0.148 µM | 0.257 µM | 49 °C | 0.589 µM | 0.003 µM | – | – |
| Cc1cc(C2CCCN2c2cc(F)cc(F)c2)c2nc(N3CCOCC3)cnc2c1 (single isomer, unassigned) [Compound 107] | > 30.2 µM | > 30.2 µM | > 30.2 µM | – | – | 80 to 90 °C | 23.4 µM | 0.363 µM | > 0.513 µM | > 0.513 µM |
| CC(Nc1ccc(F)c(F)c1)c1cc(C(=O)NCCO)cc2ncc(N3CCOCC3)nc12 (centres unmarked) [Compound 279] | 6.46 µM | 5.37 µM | 19.1 µM | 0.115 µM | 0.145 µM | 77 °C | 0.372 µM | 0.005 µM | – | – |
| CC(Nc1ccc(F)c(F)c1)c1cc(C(=O)NC[C@H]2CCCN2)cc2ncc(N3CCOCC3)nc12 (some centres unmarked) [Compound 376] | 5.13 µM | 4.27 µM | > 30.2 µM | 0.085 µM | 0.105 µM | 130 °C | 0.295 µM | 0.001 µM | – | – |
| CC(Oc1cccc(F)c1)c1cc(C(=O)N2CCC[C@H]2CO)cc2ncc(N3CCOCC3)nc12 (single isomer, unassigned) [Compound 86] | 21.4 µM | 3.47 µM | > 30.2 µM | 0.263 µM | 0.513 µM | 76 °C | 0.537 µM | 0.015 µM | – | – |
| C[C@H](CO)NC(=O)c1cc(C2CCCN2c2cc(F)cc(F)c2)c2nc(N3CCOCC3)cnc2c1 (single isomer, unassigned) [Compound 70] | 1.1 µM | 0.339 µM | 19.1 µM | 0.023 µM | ~0.045 µM | 80 °C | 0.148 µM | 0.002 µM | – | – |
| CC(Nc1cc(F)cc(Cl)c1)c1cc(C(=O)N2CCOCC2)cc2ncc(N3CCOCC3)nc12 (centres unmarked) [Compound 146] | 8.13 µM | 1.91 µM | > 30.2 µM | 0.038 µM | 0.083 µM | 80 °C | 0.933 µM | 0.002 µM | – | – |
| CC(Nc1cc(F)cc(F)c1)c1cc(CN2CCOCC2)cc2ncc(N3CCOCC3)nc12 (centres unmarked) [Compound 168] | > 30.2 µM | 3.63 µM | > 30.2 µM | 0.112 µM | 0.214 µM | 165 °C | 1.86 µM | 0.017 µM | – | – |
| CC(Nc1cc(F)cc(F)c1)c1cc(C(=O)N2CCOCC2)cc2ncc(N3CCOCC3)nc12 (single isomer, unassigned) [Compound 8] | 3.86 µM | 0.396 µM | 20.9 µM | – | – | 100 °C | 0.109 µM | 0.001 µM | 0.02 µM | 0.025 µM |
| COC(=O)c1cc(C(C)Nc2cc(F)cc(F)c2)c2nc(N3CCOCC3)cnc2c1 (centres unmarked) [Compound 80] | 24.5 µM | > 30.2 µM | > 30.2 µM | – | – | 244 °C | 7.59 µM | 0.05 µM | ~0.079 µM | ~0.214 µM |

Results, then the molecule that gave them:

| Kd (kinase enzymes [1]) | Kd (kinase enzymes [2]) | Kd (kinase enzymes [3]) | IC50 ([4]; Homo sapiens, PC-3, 1 h) | IC50 ([5]; Homo sapiens, PC-3, 1 h) | melting point | Kd (PI3Kδ) | Kd (PI3Kβ) | IC50 [4] | IC50 [5] | Structure (SMILES) |
| --- | --- | --- | --- | --- | --- | --- | --- | --- | --- | --- |
| 2.69 µM | 3.09 µM | 3.09 µM | – | – | 157 °C | 4.9 µM | 0.158 µM | > 0.513 µM | > 0.513 µM | CC(Nc1cc(F)cc(F)c1)c1cc(C(=O)O)cc2ncc(N3CCOCC3)nc12 (single isomer, unassigned) [Compound 83c] |
| 8.32 µM | 2.14 µM | > 30.2 µM | – | – | 75 °C | 0.288 µM | 0.002 µM | 0.056 µM | > 0.102 µM | CNCCNC(=O)c1cc(C(C)Oc2ccc(F)c(F)c2)c2nc(N3CCOCC3)cnc2c1 (single isomer, unassigned) [Compound 344a] |
| 5.62 µM | 2.19 µM | 21.4 µM | – | 0.058 µM | 80 °C | 0.513 µM | 0.007 µM | 0.041 µM | – | CC(Nc1ccc(F)c(F)c1)c1cc(C(=O)NCCO)cc2ncc(N3CCOCC3)nc12 (single isomer, unassigned) [Compound 279a] |
| > 30.2 µM | > 30.2 µM | > 30.2 µM | > 0.513 µM | > 0.513 µM | 125 °C | > 30.2 µM | 2.69 µM | – | – | CC(Nc1ccc(F)c(F)c1)c1cc(C(=O)N2CCN3CCC[C@@H]3C2)cc2ncc(N3CCOCC3)nc12 (single isomer, unassigned) [Compound 347a] |
| 17.8 µM | 3.47 µM | > 30.2 µM | > 0.513 µM | > 0.513 µM | 90 °C | 1.26 µM | 0.033 µM | – | – | CN(C)C(=O)c1cc(N2CCCC2c2cc(F)cc(F)c2)c2nc(N3CCOCC3)cnc2c1 (single isomer, unassigned) [Compound 395a] |
| > 30.2 µM | > 30.2 µM | > 30.2 µM | – | 0.195 µM | 86 °C | > 30.2 µM | 2.24 µM | > 0.0204 µM | – | CNCCOCCN(C)C(=O)c1cc(C(C)Nc2cc(F)c(F)c(F)c2)c2nc(N3CCOCC3)cnc2c1 (single isomer, unassigned) [Compound 315a] |
